What was measured:
[1] = hydrophilic/lipophilic ratio; cited from earlier work
adipose tissue = test: Clinical study: histological analysis of adipose tissue after subcutaneous injection into areas with localized cellulite; format: in vivo, patient; settings: surfactant added to ascorbate composition
Protocol: Step (c) Ten ml of diluents solution were used to reconstitute the mixture of sodium ascorbate and sodium chloride. Cosmetic Treatment: 5 ml of reconstituted solutions were given by subcutaneous injection into local areas with localized cellulite; lipolytic effect, adverse reactions and necrosis were evaluated by histological analysis.
The cosmetic treatment using the composition according to the invention was administered to a group of subjects who were well informed of the procedure; all gave their consent to the use of the results of the study for obtaining a patent grant. […]
A more specific and in-depth observation of the lower limbs was first made to assess, visually, the presence, location and extent of the irregularities of skin surface typical of cellulite. […] By photographic, thermographic and ultrasound instrumental investigations, the condition of each subject have been determined and classified according to a cellulite evaluation scale, ad hoc elaborated for the present study: • grade 0: exempt subjects; • grade 1: local skin rupture, characterized by few presence of irregular skin surface (madras skin or mattres phenomenon) with pit shaped introflexions; • grade 2: generalized skin rupture (skin roughness or orange peel skin). […]

adipocytes = settings: concentration of 0.06% (3.3 mM); Gao Yan et al. 2009; cited from earlier work
[2] = also printed as 0.0176% to 0.176%; Sakagami H. et al. 1996; cited from earlier work

Compound | HLB [1] | ability of surfactants to determine the improvement of the lipolytic action of ascorbic acid salt (adipose tissue) | apoptotic damage and adipocytes decrease (adipocytes) | concentration range to induce an apoptotic effect [2] [mM]
CCCCCCCC/C=C\CCCCCCCC(=O)OCC(O)CO (stereo not drawn) [Glyceryl monooleate] | HLB: 2-3 |  |  | 
Polysorbate 80 | HLB: 10-12 |  |  | 
CCCCCCCCCCCCCCCC(=O)OC[C@H](O)[C@H]1OC(=O)C(O)=C1O [Ascorbyl Palmitate, ascorbyl palmitate] | HLB: 4-5 | particularly effective |  | 
O=C1O[C@H]([C@@H](O)CO)C(O)=C1O [ascorbic acid] |  |  | ineffective | 1 to 10
